By EC50 is commonly meant the concentration that produces a half-maximal response. A high value points to a need for much substance. A word on the solubility: it is how much of the substance goes into solution per volume. Usually Cmax stands for the peak of the concentration-time curve. Usually half-life stands for how long it takes for the measured level to halve.

Here are results for six compounds from patent publication US20140213513A1 (Sanofi, priority 2012, published 2014).

Data set [1] concerns the target T1, human GLP-1 receptor (hGLP-1 R) (Homo sapiens, UniProt P43220).
T1 construct: expressed in transfected cells
Description: cAMP response of HEK-293 cells stably expressing human GLP-1 receptor (HTRF). The format is cell-based. The following applies: Table 7; cAMP formation. The gist of the method:
(§1)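 After near-confluent growth in DMEM with 10% FBS, cells were washed in Ca/Mg-free PBS, lifted with accutase and diluted to 400000 cells/ml in IBMX (2 mM)-containing HEPES-buffered HBSS with 0.1% BSA. Compounds were applied for 30 minutes at room temperature before homogeneous time-resolved fluorescence quantitation of cAMP.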
(In general: In TR-FRET formats the signal depends on donor and acceptor labels being close together.)

The target of data set [2] is T2, human GIP receptor (hGIP R) (Homo sapiens, UniProt P48546).
T2 construct: expressed in transfected cells
T2 sequence (P48546 22-466): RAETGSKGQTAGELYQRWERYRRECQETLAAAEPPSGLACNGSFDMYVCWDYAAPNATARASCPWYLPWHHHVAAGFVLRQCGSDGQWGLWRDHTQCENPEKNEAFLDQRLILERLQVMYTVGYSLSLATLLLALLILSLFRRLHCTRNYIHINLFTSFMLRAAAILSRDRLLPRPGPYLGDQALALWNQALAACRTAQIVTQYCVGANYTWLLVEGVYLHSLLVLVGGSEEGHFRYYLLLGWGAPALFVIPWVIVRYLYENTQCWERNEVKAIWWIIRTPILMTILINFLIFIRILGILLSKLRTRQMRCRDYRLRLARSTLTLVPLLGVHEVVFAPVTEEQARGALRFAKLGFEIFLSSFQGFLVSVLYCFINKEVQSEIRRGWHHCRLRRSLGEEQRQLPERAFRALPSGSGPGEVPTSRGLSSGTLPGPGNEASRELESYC
Kind of data set: cAMP response of HEK-293 cells stably expressing human GIP receptor (HTRF). The format is cell-based. The following applies: Table 7; cAMP formation. In outline:
as §1

The target in data set [3] is T3, human glucagon receptor (hGLUC R) (Homo sapiens, UniProt P47871).
T3 construct: expressed in transfected cells
T3 sequence (P47871 26-477): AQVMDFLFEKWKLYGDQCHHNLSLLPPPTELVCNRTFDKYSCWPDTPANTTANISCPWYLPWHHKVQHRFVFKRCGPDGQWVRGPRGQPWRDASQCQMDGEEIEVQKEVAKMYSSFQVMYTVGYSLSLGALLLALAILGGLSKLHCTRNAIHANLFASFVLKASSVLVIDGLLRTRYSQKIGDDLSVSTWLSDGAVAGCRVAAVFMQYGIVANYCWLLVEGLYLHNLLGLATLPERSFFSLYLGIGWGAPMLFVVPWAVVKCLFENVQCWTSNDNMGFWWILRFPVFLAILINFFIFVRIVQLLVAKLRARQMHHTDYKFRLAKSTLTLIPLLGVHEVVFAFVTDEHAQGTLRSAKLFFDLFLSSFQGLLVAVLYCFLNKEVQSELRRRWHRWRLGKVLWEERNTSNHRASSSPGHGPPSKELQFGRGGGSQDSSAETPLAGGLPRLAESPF
Description: cAMP response of HEK-293 cells stably expressing human glucagon receptor (HTRF). It is filed as cell-based. The following applies: Table 7; cAMP formation. In outline: as §1

Data set [4] can be described thus: Solubility testing in buffer (HPLC-UV of supernatant). The format is physicochemical.
Data set [5] in a line: Pharmacokinetic testing in mice (plasma LC/MS). It is filed as in vivo. The following applies: mouse, sc, 1 mg/kg s.c. As for the experimental part:
Mice were dosed 1 mg/kg subcutaneously (s.c.).
Pharmacokinetic profiles were determined as described in Methods.

In data set [6] the target is T4, human GIP receptor (human) (UniProt P48546).
T4 sequence (looked up): T2 sequence (P48546 22-466)
Description: cell-based or functional assay.

Data set [7] addresses human GLP-1 receptor (human) (UniProt P43220). Kind of data set: cell-based or functional assay.
Setting [8] is: pH 4.5, target concentration 1.0 mg/mL, read-out: Solubility (pH 4.5).
Where [9] appears, read: pH 7.4, target concentration 1.0 mg/mL, read-out: Solubility (pH 7.4).

Converted amounts (≈) assume the structure as drawn. Where two headings read alike, the source gives them in different places. *1 amine or outer side, *2 acyl side, *3 side chain or, on linkers, in order; H or OH if unused. Where a SMILES comes first, the peptide text is derived from it. Side-chain parts run from the residue outwards. [ ]: non-standard residue; d: D form. The star is where a group is joined. γGlu = O=C(O)[C@H](CCC(=O)[*:2])N[*:1]; Stearoyl = CCCCCCCCCCCCCCCCCC(=O)*; Palmitoyl = CCCCCCCCCCCCCCCC(=O)*; Aib = CC(C)(N)C(=O)O Bounds are passed on as bounds.

T1 sequence (P43220 24-463): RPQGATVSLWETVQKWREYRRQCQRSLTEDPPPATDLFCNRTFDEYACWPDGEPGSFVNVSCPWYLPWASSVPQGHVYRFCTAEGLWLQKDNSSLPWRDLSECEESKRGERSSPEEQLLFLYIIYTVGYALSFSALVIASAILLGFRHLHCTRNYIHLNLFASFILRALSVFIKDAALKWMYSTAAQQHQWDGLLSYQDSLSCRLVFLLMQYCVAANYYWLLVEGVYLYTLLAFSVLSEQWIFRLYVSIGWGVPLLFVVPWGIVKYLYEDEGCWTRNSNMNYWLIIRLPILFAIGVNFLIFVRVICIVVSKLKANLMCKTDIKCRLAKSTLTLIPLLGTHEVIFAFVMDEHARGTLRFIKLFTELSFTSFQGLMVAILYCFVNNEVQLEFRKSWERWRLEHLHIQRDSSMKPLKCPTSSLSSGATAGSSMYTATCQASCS
human GLP-1 receptor (human), sequence (P43220 24-463): as above

`CCCCCCCCCCCCCCCC(=O)N[C@@H](CCC(=O)NCCCC[C@H](NC(=O)[C@H](CCC(N)=O)NC(=O)[C@@H](NC(=O)[C@H](CO)NC(=O)[C@H](CC(C)C)NC(=O)[C@H](CC(=O)O)NC(=O)[C@H](CO)NC(=O)[C@@H](NC(=O)[C@H](Cc1ccccc1)NC(=O)[C@@H](NC(=O)CNC(=O)[C@H](CCC(N)=O)NC(=O)C(C)(C)NC(=O)[C@@H](N)Cc1ccc(O)cc1)[C@@H](C)O)[C@@H](C)O)[C@@H](C)CC)C(=O)N[C@@H](CCC(=O)O)C(=O)N[C@@H](CCCCN)C(=O)N[C@@H](CCCNC(=N)N)C(=O)N[C@@H](C)C(=O)N[C@@H](C)C(=O)NC(C)(C)C(=O)N[C@@H](CCC(=O)O)C(=O)N[C@@H](Cc1ccccc1)C(=O)N[C@H](C(=O)N[C@@H](CCC(=O)O)C(=O)N[C@@H](Cc1c[nH]c2ccccc12)C(=O)N[C@@H](CC(C)C)C(=O)N[C@@H](CCCCN)C(=O)N[C@@H](C)C(=O)N[C@H](C)C(=O)NCC(=O)N1CCC[C@H]1C(=O)N[C@@H](CO)C(=O)N[C@@H](CO)C(=O)NCC(=O)N[C@@H](C)C(=O)N1CCC[C@H]1C(=O)N1CCC[C@H]1C(=O)N1CCC[C@H]1C(=O)N[C@@H](CO)C(N)=O)[C@@H](C)CC)C(=O)O` [SEQ ID NO: 14, Y-Aib-Q-G-T-F-T-S-D-L-S-I-Q-K(yE-x53)-E-K-R-A-A-Aib-E-F-I-E-W-L-K-A-dAla-G-P-S-S-G-A-P-P-P-S-N H2]: the values for the EC50 in data set [1], in data set [2] and in data set [3] were 6.5 pM, 0.0062 nM and 0.0623 nM, respectively. In addition, the solubility at 2 h is 1020 µg/mL (≈ 227 µM) in data set [4] (setting [8]) and greater than 1000 µg/mL in data set [4] (setting [9]). In data set [5], this compound registered a peak concentration (Cmax) of 5570 ng/mL. In data set [5], this compound had a half-life of 132 min.

With `CCCCCCCCCCCCCCCC(=O)N[C@@H](CCC(=O)NCCCC[C@H](NC(=O)[C@H](CCC(N)=O)NC(=O)[C@@H](NC(=O)[C@H](CO)NC(=O)[C@H](CC(C)C)NC(=O)[C@H](CC(=O)O)NC(=O)[C@H](CO)NC(=O)[C@@H](NC(=O)[C@H](Cc1ccccc1)NC(=O)[C@@H](NC(=O)CNC(=O)[C@H](CCC(N)=O)NC(=O)C(C)(C)NC(=O)[C@@H](N)Cc1ccc(O)cc1)[C@@H](C)O)[C@@H](C)O)[C@@H](C)CC)C(=O)N[C@@H](CC(=O)O)C(=O)N[C@@H](CCCCN)C(=O)N[C@@H](CCCNC(=N)N)C(=O)N[C@@H](CCCNC(=N)N)C(=O)N[C@@H](C)C(=O)N[C@@H](CCC(N)=O)C(=O)N[C@@H](CC(=O)O)C(=O)N[C@@H](Cc1ccccc1)C(=O)N[C@H](C(=O)N[C@@H](CCC(=O)O)C(=O)N[C@@H](Cc1c[nH]c2ccccc12)C(=O)N[C@@H](CC(C)C)C(=O)N[C@@H](CCCCN)C(=O)N[C@@H](C)C(=O)NCC(=O)NCC(=O)N1CCC[C@H]1C(=O)N[C@@H](CO)C(=O)N[C@@H](CO)C(=O)NCC(=O)N[C@@H](C)C(=O)N1CCC[C@H]1C(=O)N1CCC[C@H]1C(=O)N1CCC[C@H]1C(=O)N[C@@H](CO)C(N)=O)[C@@H](C)CC)C(=O)O` [SEQ ID NO: 53, Y-Aib-Q-G-T-F-T-S-D-L-S-I-Q-K(yE-x53)-DKRRAQDFIEWLKAGGPSSGAPPPS-NH2] (H-Y[Aib]QGTFTSDLSIQK([γGlu-Palmitoyl])DKRRAQDFIEWLKAGGPSSGAPPPS-NH2), the EC50 in data set [1] is 13.6 pM; in data set [2], 0.0932 nM; in data set [3], 0.0079 nM. The solubility at 2 h in data set [4] (setting [8]) was found to be 932 µg/mL (≈ 203 µM); in data set [4] (setting [9]), 958 µg/mL (≈ 209 µM).

In the case of `CCCCCCCCCCCCCCCC(=O)N[C@@H](CCC(=O)NCCCC[C@H](NC(=O)[C@H](CCC(N)=O)NC(=O)[C@H](CCCCN)NC(=O)[C@H](CO)NC(=O)[C@H](CC(C)C)NC(=O)[C@H](CC(=O)O)NC(=O)[C@H](CO)NC(=O)[C@@H](NC(=O)[C@H](Cc1ccccc1)NC(=O)[C@@H](NC(=O)CNC(=O)[C@H](CCC(=O)O)NC(=O)C(C)(C)NC(=O)[C@@H](N)Cc1ccc(O)cc1)[C@@H](C)O)[C@@H](C)O)C(=O)N[C@@H](CCC(=O)O)C(=O)N[C@@H](CCCCN)C(=O)N[C@@H](CCC(=O)O)C(=O)N[C@@H](C)C(=O)N[C@@H](C)C(=O)NC(C)(C)C(=O)N[C@@H](CCC(=O)O)C(=O)N[C@@H](Cc1ccccc1)C(=O)N[C@H](C(=O)N[C@@H](CCC(=O)O)C(=O)N[C@@H](Cc1c[nH]c2ccccc12)C(=O)N[C@@H](CC(C)C)C(=O)N[C@@H](CCCCN)C(=O)N[C@@H](C)C(=O)NCC(=O)NCC(=O)N1CCC[C@H]1C(=O)N[C@@H](CO)C(=O)N[C@@H](CO)C(=O)NCC(=O)N[C@@H](C)C(=O)N1CCC[C@H]1C(=O)N1CCC[C@H]1C(=O)N1CCC[C@H]1C(=O)N[C@@H](CO)C(N)=O)[C@@H](C)CC)C(=O)O` [SEQ ID NO: 17, Y-Aib-E-G-T-F-T-S-D-L-S-K-Q-K(yE-x53)-E-K-E-A-A-Aib-E-F-I-E-W-L-K-A-G-G-P-S-S-G-A-P-P-P-S-NH2] (H-Y[Aib]EGTFTSDLSKQK([γGlu-Palmitoyl])EKEAA[Aib]EFIEWLKAGGPSSGAPPPS-NH2), the EC50 turned out to be 5.2 pM in data set [1], 0.0083 nM in data set [2] and 21 nM in data set [3]. Also, the solubility at 2 h in data set [4] (setting [8]) and in data set [4] (setting [9]) was greater than 1000 µg/mL throughout.

The compound Tyr(1)Ile(12)-exendin-4 (peptide) had an EC50 hGIP R in data set [6] of 93.9 pM. This compound also displayed an EC50 hGLP-1 R in data set [7] of 1.3 pM.

`CCCCCCCCCCCCCCCCCC(=O)N[C@@H](CCC(=O)NCCCC[C@H](NC(=O)[C@H](CCC(N)=O)NC(=O)[C@@H](NC(=O)[C@H](CO)NC(=O)[C@H](CC(C)C)NC(=O)[C@H](CC(=O)O)NC(=O)[C@H](CO)NC(=O)[C@@H](NC(=O)[C@H](Cc1ccccc1)NC(=O)[C@@H](NC(=O)CNC(=O)[C@H](CCC(=O)O)NC(=O)C(C)(C)NC(=O)[C@@H](N)Cc1ccc(O)cc1)[C@@H](C)O)[C@@H](C)O)[C@@H](C)CC)C(=O)N[C@@H](CCC(=O)O)C(=O)N[C@@H](CO)C(=O)N[C@@H](CCCCN)C(=O)N[C@@H](C)C(=O)N[C@@H](C)C(=O)N[C@@H](CCC(N)=O)C(=O)N[C@@H](CCC(=O)O)C(=O)N[C@@H](Cc1ccccc1)C(=O)N[C@H](C(=O)N[C@@H](CCC(=O)O)C(=O)N[C@@H](Cc1c[nH]c2ccccc12)C(=O)N[C@@H](CC(C)C)C(=O)N[C@@H](CCCCN)C(=O)N[C@@H](C)C(=O)NCC(=O)NCC(=O)N1CCC[C@H]1C(=O)N[C@@H](CO)C(=O)N[C@@H](CO)C(=O)NCC(=O)N[C@@H](C)C(=O)N1CCC[C@H]1C(=O)N1CCC[C@H]1C(=O)N1CCC[C@H]1C(=O)N[C@@H](CO)C(N)=O)[C@@H](C)CC)C(=O)O` [SEQ ID NO: 42, Y-Aib-E-G-T-F-T-S-D-L-S-I-Q-K(yE-x70)-ESKAAQEFIEWLKAGGPSSGAPPPS-NH2] (H-Y[Aib]EGTFTSDLSIQK([γGlu-Stearoyl])ESKAAQEFIEWLKAGGPSSGAPPPS-NH2): the values for the EC50 in data set [1], in data set [2] and in data set [3] were 6.2 pM, 0.0129 nM and 8.47 nM, respectively. Further, the figures for the solubility at 2 h in data set [4] (setting [8]) and in data set [4] (setting [9]) were greater than 1000 µg/mL and 936 µg/mL (≈ 208 µM), respectively.

Turning to `CCCCCCCCCCCCCCCC(=O)N[C@@H](CCC(=O)NCCCC[C@H](NC(=O)[C@H](CCC(N)=O)NC(=O)[C@@H](NC(=O)[C@H](CO)NC(=O)[C@H](CC(C)C)NC(=O)[C@H](CC(=O)O)NC(=O)[C@H](CO)NC(=O)[C@@H](NC(=O)[C@H](Cc1ccccc1)NC(=O)[C@@H](NC(=O)CNC(=O)[C@H](CCC(=O)O)NC(=O)C(C)(C)NC(=O)[C@@H](N)Cc1ccc(O)cc1)[C@@H](C)O)[C@@H](C)O)[C@@H](C)CC)C(=O)N[C@@H](CCC(=O)O)C(=O)N[C@@H](CCC(=O)O)C(=O)N[C@@H](CCCNC(=N)N)C(=O)N[C@@H](C)C(=O)N[C@@H](C)C(=O)N[C@@H](Cc1c[nH]cn1)C(=O)N[C@@H](CCC(=O)O)C(=O)N[C@@H](Cc1ccccc1)C(=O)N[C@H](C(=O)N[C@@H](CCC(=O)O)C(=O)N[C@@H](Cc1c[nH]c2ccccc12)C(=O)N[C@@H](CC(C)C)C(=O)N[C@@H](CCCCN)C(=O)N[C@@H](CCCNC(=N)N)C(=O)NC(C)(C)C(=O)NCC(=O)N1CCC[C@H]1C(=O)N[C@@H](CO)C(=O)N[C@@H](CO)C(=O)NCC(=O)N[C@@H](C)C(=O)N1CCC[C@H]1C(=O)N1CCC[C@H]1C(=O)N1CCC[C@H]1C(=O)N[C@@H](CO)C(N)=O)[C@@H](C)CC)C(=O)O` [SEQ ID NO: 37, Y-Aib-E-G-T-F-T-S-D-L-S-I-Q-K(yE-x53)-E-E-R-A-A-H-E-F-I-E-W-L-K-R-Aib-G-P-S-S-G-A-P-P-P-S-NH2], the EC50 in data set [1] is 6.6 pM; in data set [2] it was 0.0121 nM; in data set [3] it was 12.1 nM. The solubility at 2 h in data set [4] (setting [8]) and in data set [4] (setting [9]) was greater than 1000 µg/mL throughout.
